Data from paper PMC6522914, “Benzonate derivatives of acetophenone as potent α-glucosidase inhibitors: synthesis, structure–activity relationship and mechanism” (Journal of Enzyme Inhibition and Medicinal Chemistry, 2019).
“Also recorded” adds a separate entry of the source. Where two headings read alike, the source gives them in different places. One block for each compound: values may come before it.

What was measured:
α-glucosidase [1] = biological target: T1, α-glucosidase (Saccharomyces cerevisiae, UniProt P53341); details: cited from earlier work
[2] = Sucrose-loading test (postprandial blood glucose); type: in vivo, Kunming mice; details: mice, 20 mg/kg by gavage, sucrose 2.5 g/kg, 0–120 min
Method: The carbohydrate loading test was conducted according as Kato et al.[23] and Han et al.[24] reported, with slight modifications. Fifteen male Kunming mice (35–40 g) after an overnight fast were randomly divided into three groups (five mice per group). […] A blank control group was loaded with 0.5% CMC–Na solution only. The blood samples were collected from the mice’s tail vein at 0, 15, 30, 60, 90, and 120 min, and the blood glucose levels were determined by a glucose detection kit.

[3] = biological target: α-glucosidase (EC 3.2.1.20) (Saccharomyces cerevisiae, UniProt P53341); experiment: α-Glucosidase inhibitory assay (pNPG substrate); type: biochemical; details: in vitro
Method: The α-glucosidase inhibitory assay was performed according to a slightly modified method previously reported[21]^,[22]. In brief, a series of reaction solutions, including a fixed amount of α-glucosidase (10 unit/mL 3.75 µL), different concentrations of inhibitors (the tested compounds or positive controls, 37.5 µL), and sodium phosphate buffer (PBS, […], 0.1 M, pH 6.8), were incubated at 37 °C for 10 min. To initiate the reaction, 112.5 µL of pNPG (6.0 mM, as a substrate) was added into the pre-incubated mixtures, and the final volume of reaction system was kept at 750 µL. The p-nitrophenol released from pNPG substrate was used as the target substance to quantify the enzymatic activity. […] The negative control was prepared by adding PBS instead of α-glucosidase, the blank was prepared by adding solvent instead of tested compounds, and the inhibition rate was calculated as the following Equation (1). (1) (ODcontrol−ODcontrol blank)−(ODtest−ODtest blank)/ODcontrol−ODcontrol blank×100%

intestinal α-glucosidase = experiment: Everted intestinal sleeve assay; parameters: species or system Sprague–Dawley rats
Method: ^1H NMR and ^13 C NMR spectra were carried out using a 500 MHz Avance spectrometer (Bruker, USA) or a Varian Mercury 400 MHz spectrometer. Chemical shifts were measured relative to the residual solvent peaks of CDCl3 with tetramethylsilane as the internal standard. High-resolution mass spectra were recorded on an AB SCIEX Triple TOF 5600+ spectrometer. The in vitro inhibitory activity and kinetic assay of α-glucosidase were measured by a microplate reader (Synergy HTX, BioTek Instruments Inc., Winooski, VT, USA). Fluorescence spectra were conducted on a spectrofluorometer (LS55, Perkin Elmer Inc., Waltham, MA, USA). […] Titration microcalorimetry measurement conducted on a Nano-ITC SV instrument (TA Instruments Ltd., UK). The surgeries were performed under anesthesia and all efforts were made to minimise animal suffering. The blood glucose levels were determined via a glucose detection kit (Robio Co., Ltd., Shanghai, China). […] The concentrations of glucose in the soaking solution and intestinal sleeve were detected using S-10 biosensor analyzer (Sieman Technology Co., Ltd., Shenzhen, China). All reaction progress was monitored by thin-layer chromatography (TLC) on silica gel GF254 (Qingdao Haiyang Chemical Co., Ltd., Qingdao, China) with ultraviolet detection. Reagents were purchased from commercial sources (Bodi Chemical Co., Ltd., Tianjin, China; Aladdin Industrial Co., Ltd., Shanghai, China), and used as received. α-Glucosidase (EC 3.2.1.20, Sigma-Aldrich Chemical, St. Louis, MO, USA); 4-nitrophenyl-α-D-glucopyranoside (pNPG) (99%, Macklin Biochemical Co., Ltd, Shanghai, China).
After a 12-h fasting, the jejunum of 200–220 g Sprague-Dawley […] was obtained. Then the proximal jejunum was flushed with pre-cold isotonic saline (4 °C) and cut into 3 cm-long segments. Each segment was weighed separately, everted and both ends were secured by tying knots. Then the sleeves were incubated (90 min at 37 °C) in mammalian Ringer’s solution containing sucrose (1.5 mM) and an appropriate concentration of the inhibitor (0.17 mM). Following the incubation, the concentrations of glucose in the soaking solution and intestinal sleeves were tested with biosensor analyzer (S-10). The total glucose concentration was calculated as glucose per gram of gut weight (mmol/g).

α-glucosidase [4] = biological target: T1, α-glucosidase; experiment: Kinetic analysis of inhibition type (Lineweaver–Burk / Michaelis–Menten); type: biochemical
Method: To further explore the inhibitory characteristic of this type of compounds, kinetic studies of the selected compound 7u were performed[3]^,[13]^,[26]. Different final concentrations (0.5, 1, 2, 4, and 8 µM) of the inhibitor 7u around the IC50 values were chosen. The concentration of α-glucosidase was kept at 1 µM, and the pNPG concentrations varied from 2.0 to 12.0 mM in the absence and presence of compound 7u. The type of inhibition was analyzed on the basis of the Michaelis–Menten constant (Km) and maximal rate (Vmax) of the enzyme. The parameters were determined via Lineweaver–Burk plots, which was obtained by plotting enzyme reaction velocity (ν) and substrate (pNPG), namely, 1/ν versus 1/[pNPG]. The secondary plot slope against [7u] was also determined. The protein concentration was determined according to the Bradford method[27] using bovine serum albumin as the standard.

α-glucosidase [5] = biological target: T1, α-glucosidase; experiment: Fluorescence quenching and van't Hoff thermodynamics; type: binding; details: for ΔG^o: van't Hoff
Method: The steady state fluorescence emission spectra, were recorded between 300 and 500 nm at the excitation wavelength of 280 nm at three different temperatures (25, 31 and 37 °C), and both the excitation and emission slits were set at 2.5 nm. Compound 7u at different concentrations (from 0 to 6 µM) were added into the 3.0 ml solution containing a fixed amount of α-glucosidase (2μM). All of the mixtures were held for 5 min to equilibrate before measurements. The fluorescence spectra of buffer were subtracted as the background fluorescence.
(§1) The synchronous fluorescence spectra of α-glucosidase in the absence and presence of compound 7u were scanned by setting the excitation and emission wavelength intervals (Δλ) at 15 and 60 nm, respectively. To eradicate the probability of re-absorption and inner filter effects in UV absorption, all of the fluorescence data were corrected for absorption of exciting light and emitted light, based on the Equation S1[3]^,[13].

α-glucosidase [6] = biological target: T1, α-glucosidase; experiment: Isothermal titration calorimetry; type: binding; details: ITC, 25 °C
Method: Titration of the compound 7u into the α-glucosidase was performed at 25 °C. All the solutions were prepared in 0.1 M PBS (pH 6.8). The α-glucosidase solution (2.5μM) was placed in the 1.3 ml sample cell of the calorimeter, and the injection syringe was loaded with the solution of 7u (30μM, in 0.05% DMSO). The solution of compound 7u was titrated into the sample cell at 25 °C as a progression of 25 injections of 10μL. The time delay between each two injections was 300 s. To ensure comprehensive mixing, all the sample was stirred at a speed of 300 rpm during experiment. The control experiments included the titration of the compound 7u solution into 0.1 M PBS (pH 6.8)[33–35].

α-glucosidase [7] = biological target: T1, α-glucosidase; experiment: Synchronous fluorescence spectra; type: binding; details: 7u 0–6 µM, 25 °C
Source text: as §1

α-glucosidase [8] = biological target: T1, α-glucosidase; experiment: Circular dichroism measurement; type: binding; details: 7u 0–4 µM, α-glucosidase 2 µM, 25 °C
Method: The CD measurements of α-glucosidase in the presence of compound 7u were conducted in far–UV region (190–250 nm), under nitrogen environment using a 1.0 mm path length cuvette. The concentration of α-glucosidase was maintained constant (2 µM) while the 7u concentration was varied as 0, 1, 2, and 4 µM. All observed CD spectra were recorded in 0.1 M PBS (pH 6.8) at 25 °C[13]^,[31].

T1 sequence (P53341 whole entry): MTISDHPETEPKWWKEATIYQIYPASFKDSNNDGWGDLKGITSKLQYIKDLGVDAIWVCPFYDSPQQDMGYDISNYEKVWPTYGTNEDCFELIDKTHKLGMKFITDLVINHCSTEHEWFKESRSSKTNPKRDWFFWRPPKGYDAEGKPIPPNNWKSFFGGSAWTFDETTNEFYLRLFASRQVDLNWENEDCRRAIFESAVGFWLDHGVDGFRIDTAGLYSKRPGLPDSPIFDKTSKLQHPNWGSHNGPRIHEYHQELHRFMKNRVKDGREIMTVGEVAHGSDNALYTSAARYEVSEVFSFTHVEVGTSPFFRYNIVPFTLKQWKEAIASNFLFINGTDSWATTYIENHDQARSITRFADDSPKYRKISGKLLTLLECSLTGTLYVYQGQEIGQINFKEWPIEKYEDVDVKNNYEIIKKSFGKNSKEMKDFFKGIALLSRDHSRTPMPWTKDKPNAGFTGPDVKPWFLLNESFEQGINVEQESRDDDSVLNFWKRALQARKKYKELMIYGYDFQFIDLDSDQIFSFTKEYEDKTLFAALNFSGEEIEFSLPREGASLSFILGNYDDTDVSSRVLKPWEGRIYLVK
Sequence of α-glucosidase (EC 3.2.1.20) (P53341 whole entry): as above

Structure (SMILES): O=c1cc(-c2ccc(O)cc2)oc2cc(O)cc(O)c12 [compound 2, apigenin]
inhibition activity against α-glucosidase compared with acarbose (α-glucosidase [1]; ref Zeng et al. 13): superior inhibition activity against α-glucosidase than acarbose

Structure (SMILES): C[C@H]1O[C@H](O[C@H]2[C@H](O)[C@@H](O)[C@@H](O[C@H]3[C@H](O)[C@@H](O)C(O)O[C@@H]3CO)O[C@@H]2CO)[C@H](O)[C@@H](O)[C@@H]1N[C@H]1C=C(CO)[C@@H](O)[C@H](O)[C@H]1O (stereo partly shown) [Acarbose, acarbose, reference compound]
effect on postprandial blood glucose levels [2]: at lower level than the model group

Structure (SMILES): CC(=O)c1cc(C)c(O)cc1O [compound 3, 2,4-dihydroxy-5-methylacetophenone]
α-glucosidase inhibitory activity (in words) [3]: considerable inhibitory activity against α-glucosidase in prescreen

Structure (SMILES): CC(C)=CCC/C(C)=C/Cc1c(O)cc(O)c(C(=O)/C=C/c2ccc(O)cc2)c1O [compound 1, 3′-geranylchalconaringenin]
inhibition activity against α-glucosidase compared with acarbose (α-glucosidase [1]; ref Sun et al. 12): superior inhibition activity against α-glucosidase than acarbose

α-glucosidase inhibitory activity (in words) [3]: lost the activity
Structure (SMILES): CC(=O)c1cc(Br)c(OC(=O)CCCCBr)c(Br)c1O [7h]

inhibitory activity on intestinal α-glucosidase compared with acarbose (intestinal α-glucosidase; 0.17 mM): better than that of acarbose
total concentration of glucose (intestinal α-glucosidase; 0.17 mM inhibitor, sucrose 1.5 mM, 5–90 min, versus blank): much lower than that of the blank
glucose concentration in the intestinal sleeves (intestinal α-glucosidase; 0.17 mM inhibitor, sucrose 1.5 mM, versus blank): lower than that of blank
Vmax (α-glucosidase [4]; 7u 1 µM): 1.39 ± 0.02 µM/min
Vmax (α-glucosidase [4]; 7u 2 µM): 1.24 ± 0.01 µM/min
Vmax (α-glucosidase [4]; 7u 4 µM): 1.04 ± 0.01 µM/min
Vmax (α-glucosidase [4]; 7u 8 µM): 0.84 ± 0.02 µM/min
type of inhibition (α-glucosidase [4]; Lineweaver–Burk plot): mixed-type inhibition
KSV (quenching constant) (α-glucosidase [5]; 25 °C): 5.00 ± 0.04 × 10^4 L·mol^−1
n (number of binding sites) (α-glucosidase [5]; 25 °C): 1.23
ΔG^o (α-glucosidase [5]; 25 °C): -7.698 ± 0.014 kcal/mol
KSV (quenching constant) (α-glucosidase [5]; 31 °C): 4.74 ± 0.03 × 10^4 L·mol^−1
n (number of binding sites) (α-glucosidase [5]; 31 °C): 1.19
ΔG^o (α-glucosidase [5]; 31 °C): -7.488 ± 0.0072 kcal/mol
KSV (quenching constant) (α-glucosidase [5]; 37 °C): 4.31 ± 0.02 × 10^4 L·mol^−1
n (number of binding sites) (α-glucosidase [5]; 37 °C): 1.15
ΔG^o (α-glucosidase [5]; 37 °C): -7.28 ± 0.0048 kcal/mol
quenching mechanism (α-glucosidase [5]; KSV versus temperature): static quenching mechanism
Kq (α-glucosidase [5]; fluorescence quenching): ~10^12 L·mol^−1·s^−1
ΔG (α-glucosidase [6]): –39.04 kJ·mol^−1
ΔH (α-glucosidase [6]): -23.901 kcal/mol
ΔS (α-glucosidase [6]): –204.50 J·mol^−1·K^−1
ΔG (α-glucosidase [6]; listed as 7 u): -9.331 kcal/mol
ΔS (α-glucosidase [6]; listed as 7 u): −204.50 J·mol^−1·K^−1
shift of maximum emission wavelength of Tyr residues (α-glucosidase [7]; Δλ = 15 nm): No evident shift
Structure (SMILES): CC(=O)c1cc(Br)c(OC(=O)c2ccccc2[N+](=O)[O-])c(Br)c1O [7u]
effect on postprandial blood glucose levels ([2]; 20 mg/kg): significantly attenuated postprandial blood glucose in mice; also recorded: obvious repressive effect on blood glucose concentrations at peaked 15 min
glucose concentration in the solution outside the intestinal sleeves (intestinal α-glucosidase; 0.17 mM inhibitor, sucrose 1.5 mM): decreased the glucose concentrations in the solution present outside the intestinal sleeves
shift of maximum emission wavelength of Trp residues (α-glucosidase [7]; Δλ = 60 nm): noticeable red shift (from 277.5 to 286.5 nm)
CD negative bands at 209 and 220 nm (α-glucosidase [8]): both intensity of the negative bands decreased
